Source: paper PMC4972714 (Bioorganic & medicinal chemistry, 2016)

Key:
[1] = tested on: HIV-1 NL4-3 in U87-CD4/CXCR4 cells; assay: Viral replication assay, p24 read-out; format: cell-based; settings: 10 µM, infection over several days, NL4-3 in U87-CD4/CXCR4 cells (Fig. 1A)
[2] = tested on: HIV-1 RRE IIB RNA; assay: Dot blot assay, binding to RRE IIB RNA; settings: dot blot Kd relative to BPBA3
[3] = target: HIV-1 RRE IIB RNA; settings: native Rev protein with RRE; ref [26], [58]; cited from earlier work

Compound	HIV-1 replication screening, p24 expression [1]	other results
Nc1ccn([C@@H]2CS[C@H](CO)O2)c(=O)n1 [3TC, 2′,3′-dideoxy-3′-thiacytidine]	completely abolished p24 expression	
Cc1cn([C@H]2C[C@H](N=[N+]=[N-])[C@@H](CO)O2)c(=O)[nH]c1=O [AZT, azidothymidine]	completely abolished p24 expression	
Elvitegravir	completely abolished p24 expression	
FBPAYFBPA*NKSY [LBPBA3A]		loss in binding affinity towards RRE IIB versus BPBA3 [2]: 2 fold
FBPAYFBPAFBPAYFBPA*NKSY [LBPBA3B]		loss in binding affinity towards RRE IIB versus BPBA3 [2]: 3 fold
Raltegravir	completely abolished p24 expression	
Rev protein: native HIV-1 Rev protein that binds RRE		dissociation constant with RRE [3]: low nanomolar range
